Data: patent US20040058983A1, “Plan-derived and synthetic phenolic compounds and plant extracts, effective in the treatment and prevention of chlamydial infections” (priority 2000, published 2004)
Like-named read-outs stand apart in the source and are kept apart here.

Experiments:
[1] = system: C. pneumoniae; test: Direct anti-chlamydial effect of compounds and mixtures on C. pneumoniae (Example 5); format: cell-based; settings: for inhibition at 50 µM: Chlamydia pneumoniae
Procedure: Direct Anti-Chlamydial Effect of Plant-Derived Phenolic Compounds, Certain Synthetic Compounds and Mixtures on C. pneumoniae
The concentration used was 50 μM.
The cultivated HL cells are infected with C. pneumoniae EB's. The EB's which have invaded the cell are changed into the metabolically active reticulate body (RB) which are dividing by binary fission in the endosome vacuole or inclusion.
After a certain time (about 72 hr) the C. pneumoniae RB's are condensing back into EB's, after which the inclusions are broken, the host cells are broken and the EB's are liberated. In this method the intention is to verify the inclusions before the breaking up of the host cells.
On the day preceding the infection the host cells are inoculated on a 24-well plate: the cells are harvested by trypsinisation, they are suspended in ca. 5 ml of the nutrition liquid and counted in a Burker's chamber. Each well are seeded using a concentration of 250000-400000 cells/well for cultivation. Before the addition of the cells to the well is if necessary round cover glass (diameter 13 mm) put for staining. Nutrition liquid is added so that the volume is 1 ml/well. On the following day the cells are infected with the desired bacterium.
Solution to be used in the infection and containing chlamydiae particles is mixed throughout. The old nutrition liquid is aspirated away. By the infection the inoculum which has been stored at −70° C. is diluted to an IFU concentration of ca. 10^3 so that the volume of the solution is at least 200 μl/well on a 24-well plate. The cells are infected by centrifuging at 1600 rpm (550×g)/1 hr. The nutrition medium is aspirated away and changed to a maintenance medium containing cyclohexamide and also containing the studied compound (DMSO concentration 0.2%), 1 ml/well. The cells are incubated in a 5% CO2 atmosphere at +35° C. The cells infected with C. pneumoniae are incubated for 3 days. After 2-3 days the maintenance medium is removed and the cells washed with 1×1 ml of PBS. To the wells 200 μl of SPG are added for further infection, harvested with a pipette tip and transferred into tubes. This is used for infecting new cells in the same way as above to test the inhibition of infectivity (chlamydiasidic effect).
The nutrition medium, which is above the cover glass left for staining, is aspirated away. The infected cells are fixed on the cover glass with methanol for 10 min. The cover glass is removed from the well and -transferred onto a suitable fluorescein-conjugated monoclonal antibody on Parafilm in a moist chamber with the cell-containing side down. The cover glass is incubated for 30 min at +37° C. and washed twice with PBS and once with water. Finally it is dried. The cover glass is put with the cell-containing side down on an object glass containing a fixative (e.g. Mounting medium). When viewed under the fluorescent microscope, cell culture specimens infacted with chlamydiae show a characteristic apple-green fluorescence of inclusions against a red counterstained background.

[2] = Antioxidant effect, IC50 against DPPH; format: biochemical; settings: read-out: IC50 [moles L^−1] against DPPH′
Description: (§1) In the following Table I some of the preferred plant-derived phenolic compounds according to the present invention, the effect of the compounds on the calcium influx to the cell, the antioxidant effect as well as the chemical structure of the compounds are presented.

[3] = system: Ca^2+ intake in the cell; test: Effect of the compounds on the calcium influx (Ca2+ intake) to the cell; format: cell-based; settings: compound 20 μg/ml; − = decrease, + = increase
Description: as §1

COc1ccccc1-c1cc(=O)c2ccc3ccccc3c2o1 [2′-methoxy-α-naphtoflavone]
Inhibition % ([1]; 50 μM): 100%

O=c1oc2cc(O)ccc2cc1-c1nc2ccccc2o1 [3-(2-benzoxazoyl)umbelliferone]
Inhibition % ([1]; 50 μM): 28%

CC(=O)CC(c1ccccc1)c1c(O)c2ccccc2oc1=O (stereo not drawn) [3-(α-acetonylbenzyl)-4-hydroxycoumarin]
inhibition at 50 µM ([1]; 50 μM, read-out: Inhibition %): 0%

O=C(c1ccccc1)c1cc2c(ccc3ccccc32)oc1=O [3-benzoylbenzo(F)coumarin]
Inhibition % ([1]; 50 μM): 62%

Cc1c(-c2ccccc2)c(=O)oc2ccccc12 [4-methyl-3-phenylcoumarin]
inhibition at 50 µM ([1]; 50 μM, read-out: Inhibition %): 0%

COc1ccc2oc(-c3ccccc3OC)cc(=O)c2c1 [6,2′-dimethoxyflavone]
inhibition at 50 µM ([1]; 50 μM, read-out: Inhibition %): 73%

O=C(O)c1cc2cc(Br)cc(Br)c2oc1=O [6,8-dibromocoumarin-3-carboxylic acid]
inhibition at 50 µM ([1]; 50 μM, read-out: Inhibition %): 0%

Cc1ccc2oc(=O)ccc2c1 [6-methylcoumarin]
inhibition at 50 µM ([1]; 50 μM, read-out: Inhibition %): 71%

CCN(CC)c1ccc2cc(C(=O)c3cccs3)c(=O)oc2c1 [7-diethylamino-3-thenoylcoumarin]
Inhibition % ([1]; 50 μM): 100%

Oc1cc(O)c2c(c1)O[C@H](c1ccc(O)c(O)c1)[C@@H](O)C2 [(+)-Catechin]
Inhibition % ([1]; 50 μM): 76%

O=C(O[C@@H]1Cc2c(O)cc(O)cc2O[C@@H]1c1ccc(O)c(O)c1)c1cc(O)c(O)c(O)c1 [(−)-Epicatechin gallate]
Inhibition % ([1]; 50 μM): 85%

Oc1cc(O)c2c(c1)O[C@H](c1ccc(O)c(O)c1)[C@H](O)C2 [(−)-Epicatechin]
Inhibition % ([1]; 50 μM): 75%

Oc1cc(O)c2c(c1)O[C@H](c1cc(O)c(O)c(O)c1)[C@H](O)C2 [(−)-Epigallocatechin]
Inhibition % ([1]; 50 μM): 58%

COc1ccc(-c2cc(=O)c3c(O)cc(O)cc3o2)cc1 [Acacetin]
IC50 [2]: > 3520 µM | Effect on Ca^2+ intake [%] [3]: −1.39%

O=c1cc(-c2ccccc2)oc2c1ccc1ccccc12 [Alpha-naphtoflavone]
Inhibition % ([1]; 50 μM): 92%

O=c1cc(-c2ccc(O)cc2)oc2cc(O)cc(O)c12 [Apigenin]
IC50 [2]: > 3700 µM | inhibition at 50 µM ([1]; 50 μM, read-out: Inhibition %): 100% | inhibition at 20 µg/mL [3]: 29.3%

O=C(O)c1ccccc1 [Benzoic acid]
IC50 [2]: > 8190 µM | Inhibition % ([1]; 50 μM): 44% | Effect on Ca^2+ intake [%] [3]: −9.82%

O=C(O)/C=C/c1ccc(O)c(O)c1 [Caffeic acid]
IC50 [2]: 21.4 µM | inhibition at 50 µM ([1]; 50 μM, read-out: Inhibition %): 78% | inhibition at 20 µg/mL [3]: -9.71%

CCN(CC)c1ccc2cc(-c3nc4ccccc4n3C)c(=O)oc2c1 [Coumarin 30]
Inhibition % ([1]; 50 μM): 50%

Cc1cc(=O)oc2c3c4c(cc12)CCCN4CCC3 [Coumarin 102]
Inhibition % ([1]; 50 μM): 63%

O=c1oc2c3c4c(cc2c2c1CCC2)CCCN4CCC3 [Coumarin 106]
Inhibition % ([1]; 50 μM): 100%

O=c1ccc2ccccc2o1 [Coumarin]
inhibition at 50 µM ([1]; 50 μM, read-out: Inhibition %): 28%

O=c1c(-c2ccc(O)cc2)coc2cc(O)ccc12 [Daidzein]
IC50 [2]: > 3930 µM | Inhibition % ([1]; 50 μM): 51% | Effect on Ca^2+ intake [%] [3]: −26.2%

O=c1c(-c2ccc(O)cc2)coc2cc(O[C@@H]3O[C@H](CO)[C@@H](O)[C@H](O)[C@H]3O)ccc12 [Daidzin]
Inhibition % ([1]; 50 μM): 0% | Effect on Ca^2+ intake [%] [3]: +7.6%

CCCCCCCCCCCCOC(=O)c1cc(O)c(O)c(O)c1 [Dodecyl gallate]
IC50 [2]: 15.4 µM | inhibition at 50 µM ([1]; 50 μM, read-out: Inhibition %): 100% | inhibition at 20 µg/mL [3]: 40.4%

COc1cc(/C=C/C(=O)O)ccc1O [Ferulic acid]
IC50 [2]: 44.3 µM | inhibition at 50 µM ([1]; 50 μM, read-out: Inhibition %): 14% | inhibition at 20 µg/mL [3]: -9.23%

O=c1cc(-c2ccccc2)oc2ccccc12 [Flavone]
IC50 [2]: > 4500 µM | inhibition at 50 µM ([1]; 50 μM, read-out: Inhibition %): 90% | inhibition at 20 µg/mL [3]: 63.5%

O=C(O)c1cc(O)c(O)c(O)c1 [Gallic acid]
IC50 [2]: 21.5 µM | inhibition at 50 µM ([1]; 50 μM, read-out: Inhibition %): 27% | inhibition at 20 µg/mL [3]: 5.33%

O=c1c(-c2ccc(O)cc2)coc2cc(O)cc(O)c12 [Genistein]
IC50 [2]: > 3700 µM | inhibition at 50 µM ([1]; 50 μM, read-out: Inhibition %): 60% | inhibition at 20 µg/mL [3]: 54.6%

O=c1c(-c2ccc(O)cc2)coc2cc(O[C@@H]3O[C@H](CO)[C@@H](O)[C@H](O)[C@H]3O)cc(O)c12 [Genistin]
inhibition at 50 µM ([1]; 50 μM, read-out: Inhibition %): 37% | inhibition at 20 µg/mL [3]: 3.39%

COc1cc(-c2oc3cc(O)cc(O)c3c(=O)c2O)ccc1O [Isorhamnetin]
IC50 [2]: 18.1 µM | Inhibition % ([1]; 50 μM): 70% | Effect on Ca^2+ intake [%] [3]: +52.4%

O=c1cc(-c2ccc(O)c(O[C@@H]3O[C@H](CO)[C@@H](O)[C@H](O)[C@H]3O)c2)oc2cc(O[C@@H]3O[C@H](CO)[C@@H](O)[C@H](O)[C@H]3O)cc(O)c12 [Luteolin-3′,7-glucoside]
Inhibition % ([1]; 50 μM): 45% | Effect on Ca^2+ intake [%] [3]: −14.6%

O=c1cc(-c2ccc(O)c(O)c2)oc2cc(O[C@@H]3O[C@H](CO)[C@@H](O)[C@H](O)[C@H]3O)cc(O)c12 [Luteolin-7-glucoside]
IC50 [2]: 10.7 µM | Inhibition % ([1]; 50 μM): 23% | Effect on Ca^2+ intake [%] [3]: −16.3%

O=c1cc(-c2ccc(O)c(O)c2)oc2cc(O)cc(O)c12 [Luteolin]
IC50 [2]: 12 µM | inhibition at 50 µM ([1]; 50 μM, read-out: Inhibition %): 100% | inhibition at 20 µg/mL [3]: 51.4%

COC(=O)c1cc(O)c(O)c(O)c1 [Methyl gallate]
IC50 [2]: 5.09 µM | inhibition at 50 µM ([1]; 50 μM, read-out: Inhibition %): 100%

O=C1C[C@@H](c2ccc(O)cc2)Oc2cc(O)cc(O)c21 [Naringenin]
IC50 [2]: > 3670 µM | inhibition at 50 µM ([1]; 50 μM, read-out: Inhibition %): 16% | inhibition at 20 µg/mL [3]: 56.3%

C[C@@H]1O[C@@H](O[C@H]2[C@H](Oc3cc(O)c4c(c3)O[C@H](c3ccc(O)cc3)CC4=O)O[C@H](CO)[C@@H](O)[C@@H]2O)[C@H](O)[C@H](O)[C@H]1O [Naringin]
Inhibition % ([1]; 50 μM): 66% | Effect on Ca^2+ intake [%] [3]: +6.5%

Oc1cc(O)c2c(c1)O[C@H](c1ccc(O)c(O)c1)[C@H](O)[C@H]2c1c(O)cc(O)c2c1O[C@H](c1ccc(O)c(O)c1)[C@@H](O)C2 [Procyanidin B1]
Inhibition % ([1]; 50 μM): 30%

Oc1cc(O)c2c(c1)O[C@H](c1ccc(O)c(O)c1)[C@H](O)[C@H]2c1c(O)cc(O)c2c1O[C@H](c1ccc(O)c(O)c1)[C@H](O)C2 [Procyanidin B2]
Inhibition % ([1]; 50 μM): 0%

CCCOC(=O)c1cc(O)c(O)c(O)c1 [Propyl Gallate]
IC50 [2]: 13.3 µM | inhibition at 50 µM ([1]; 50 μM, read-out: Inhibition %): 100% | inhibition at 20 µg/mL [3]: 37.9%

C[C@@H]1O[C@@H](Oc2c(-c3ccc(O)c(O)c3)oc3cc(O)cc(O)c3c2=O)[C@H](O)[C@H](O)[C@H]1O [Quercitrin]
IC50 [2]: 12.9 µM | Inhibition % ([1]; 50 μM): 50% | Effect on Ca^2+ intake [%] [3]: +20.1%

Oc1ccc(/C=C/c2cc(O)cc(O)c2)cc1 [Resveratrole]
Inhibition % ([1]; 50 μM): 54%

C=C(C)[C@H]1Cc2c(ccc3c2O[C@@H]2COc4cc(OC)c(OC)cc4[C@@H]2C3=O)O1 [Rotenone]
inhibition at 50 µM [1]: 100%

C[C@@H]1O[C@@H](OC[C@H]2O[C@@H](Oc3c(-c4ccc(O)c(O)c4)oc4cc(O)cc(O)c4c3=O)[C@H](O)[C@@H](O)[C@@H]2O)[C@H](O)[C@H](O)[C@H]1O [Rutin]
IC50 [2]: 10.2 µM | Inhibition % ([1]; 50 μM): 46% | Effect on Ca^2+ intake [%] [3]: −3.88%

COc1cc2ccc(=O)oc2cc1O [Scopoletin]
inhibition at 50 µM ([1]; 50 μM, read-out: Inhibition %): 96%

COc1cc(C(=O)O)cc(OC)c1O [Syringic acid]
IC50 [2]: 32.6 µM | inhibition at 50 µM ([1]; 50 μM, read-out: Inhibition %): 32% | inhibition at 20 µg/mL [3]: 10.9%

O=c1ccc2ccc(O)cc2o1 [Umbelliferone]
inhibition at 50 µM ([1]; 50 μM, read-out: Inhibition %): 75%

C[C@@H]1O[C@@H](O[C@@H]2[C@@H](O)[C@H](O)[C@@H](CO)O[C@H]2c2c(O)cc(O)c3c(=O)cc(-c4ccc(O)cc4)oc23)[C@H](O)[C@H](O)[C@H]1O [Vitexin-2″-O-rhamnoside]
Inhibition % ([1]; 50 μM): 11% | Effect on Ca^2+ intake [%] [3]: −14.6%

O=c1cc(-c2ccc(O)cc2)oc2c([C@@H]3O[C@H](CO)[C@@H](O)[C@H](O)[C@H]3O)c(O)cc(O)c12 [Vitexin]
Inhibition % ([1]; 50 μM): 3% | Effect on Ca^2+ intake [%] [3]: −2.12%

COc1c2occc2cc2ccc(=O)oc12 [Xanthotoxin]
Inhibition % ([1]; 50 μM): 94%

Methoxy psoralen
Inhibition % ([1]; 50 μM): 100%
